Test results published in patent US12428394B2, “2,4-disubstituted pyrimidine derivative, preparation method therefor and use thereof” (CHENGDU ZENITAR BIOMEDICAL TECHNOLOGY CO., LTD., priority 2019, dated 2025).

How the values were obtained:
[1] = tested on: MOLM-13 cells (FLT3-ITD-/+); assay: Inhibition of cell proliferation by MTT experiment, MOLM-13; type: cell-based, human; settings: Homo sapiens, MOLM-13; MTT, 72 h; read-out: IC50 value on cell proliferation inhibition, MOLM-13 FLT3-ITD-/+
From the text: (§1) MV4-11, MOLM-13 and SET-2 were used to determine the influence of the test compound of the present invention on the activity of cancer cells. MV4-11 and MOLM-13 were human leukemia cell lines from American Type Culture Collection (ATCC), expressing FLT3 receptor and containing FLT3-ITD mutation; and SET-2 was a primary thrombocythemia cell purchased from Chengdu Bowerston Biotechnology Co., Ltd., China, continuously expressing JAK2 receptor and containing the mutation of V617F.
(§2) MV4-11, MOLM-13 and SET-2 cells were filled in a 96-well petri dish with 100 μL IMDM as the medium, containing 10% fetal bovine serum (100 mL/bottle, purchased from Grassland Lvye Bio-Engineering Materials Co., Ltd. and cryopreserved at −20° C.), and with 10,000-15,000 cells in each well. […] In each group, 3-5 replicate wells were set and incubated in 5% CO2 at 37° C. for 72 h. At the endpoint, 20 μL MTT (5 mg/mL) was added to each well, and the cells were incubated for another 1-3 h.
(§3) After the inhibition rate of each concentration of compound on cell proliferation activity was calculated, the dose-response curve and IC50 value were fitted by Graphpad prism software according to the compound treatment concentrations and corresponding inhibition rates.

[2] = tested on: SET-2 cells (JAK2 V617F); assay: Inhibition of cell proliferation by MTT experiment, SET-2; type: cell-based; settings: Homo sapiens, SET-2; MTT, 72 h; read-out: IC50 value on cell proliferation inhibition, SET-2 (V617F)
From the text: as §1, §2, §3

[3] = tested on: MV4-11 cells (FLT3-ITD+/+); assay: Inhibition of cell proliferation by MTT experiment, MV4-11; type: cell-based, human; settings: Homo sapiens, MV4-11; MTT, 72 h; read-out: IC50 value on cell proliferation inhibition, MV4-11 FLT3-ITD+/+
From the text: as §1, §2, §3

[4] = molecular target: T1, JAK2 (Homo sapiens, UniProt O60674); assay: In vitro kinase activity experiment, JAK2; type: biochemical; settings: inhibition rate of enzyme at 500 nM; measured by Eurofins
T1 construct: purchased Eurofins
T1 sequence (O60674 whole entry): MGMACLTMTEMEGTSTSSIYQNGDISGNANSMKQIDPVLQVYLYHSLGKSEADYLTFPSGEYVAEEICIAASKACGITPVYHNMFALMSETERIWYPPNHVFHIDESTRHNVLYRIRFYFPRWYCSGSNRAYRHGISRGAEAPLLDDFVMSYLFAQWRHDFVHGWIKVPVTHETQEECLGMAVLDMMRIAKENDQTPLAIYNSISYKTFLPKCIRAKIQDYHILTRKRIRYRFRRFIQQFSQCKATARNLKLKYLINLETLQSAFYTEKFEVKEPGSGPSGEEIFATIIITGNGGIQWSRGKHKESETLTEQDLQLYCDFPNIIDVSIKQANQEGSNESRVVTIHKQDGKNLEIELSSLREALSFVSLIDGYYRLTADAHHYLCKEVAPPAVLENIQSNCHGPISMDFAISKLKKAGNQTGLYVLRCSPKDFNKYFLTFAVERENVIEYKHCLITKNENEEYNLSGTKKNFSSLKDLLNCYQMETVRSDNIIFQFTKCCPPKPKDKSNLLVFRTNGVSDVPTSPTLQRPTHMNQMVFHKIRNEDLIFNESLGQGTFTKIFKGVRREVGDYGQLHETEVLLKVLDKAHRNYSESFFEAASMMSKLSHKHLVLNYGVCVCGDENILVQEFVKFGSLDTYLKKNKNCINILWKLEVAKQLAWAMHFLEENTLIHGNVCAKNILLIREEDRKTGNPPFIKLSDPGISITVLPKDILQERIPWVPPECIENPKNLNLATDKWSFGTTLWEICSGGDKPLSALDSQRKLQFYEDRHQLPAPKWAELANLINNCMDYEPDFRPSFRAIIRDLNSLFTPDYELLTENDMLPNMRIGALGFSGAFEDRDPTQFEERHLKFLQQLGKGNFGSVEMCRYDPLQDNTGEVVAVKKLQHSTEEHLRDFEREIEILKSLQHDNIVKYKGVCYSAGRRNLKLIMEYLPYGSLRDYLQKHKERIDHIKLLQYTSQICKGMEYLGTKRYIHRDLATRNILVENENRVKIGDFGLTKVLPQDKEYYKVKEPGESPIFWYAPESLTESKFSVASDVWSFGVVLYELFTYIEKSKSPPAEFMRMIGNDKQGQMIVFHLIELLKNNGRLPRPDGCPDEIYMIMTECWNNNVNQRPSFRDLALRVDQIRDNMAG
Procedure: (§4) Buffer solution ([…], pH 7.0, 0.2 mm EDTA, 10 mM mncl2), kinase to be tested, substrate of kinase to be tested, 10 mM magnesium acetate and γ33P-ATP solution, and compounds with different concentrations were added to a reaction tube in turn, then MgATP was added to initiate the enzyme reaction process, and incubated at room temperature for 40 min. Then, the reaction was terminated with 5 μl of […], and 10 μl of the reaction solution was titrated onto the Filtermat A membrane, washed with 75 mM phosphate solution for three times, each time for 5 min., and then washed with methanol once. Finally, the Filtermat A membrane was dried and the scintillation count was carried out.

[5] = molecular target: T2, FLT3 (Homo sapiens, UniProt P36888); assay: In vitro kinase activity experiment, FLT3; type: biochemical; settings: 40 min; inhibition rate of enzyme at 500 nM; measured by Eurofins; read-out: Kinase activity @ 500 nM (%) FLT3
T2 construct: purchased Eurofins
T2 sequence (P36888 27-993): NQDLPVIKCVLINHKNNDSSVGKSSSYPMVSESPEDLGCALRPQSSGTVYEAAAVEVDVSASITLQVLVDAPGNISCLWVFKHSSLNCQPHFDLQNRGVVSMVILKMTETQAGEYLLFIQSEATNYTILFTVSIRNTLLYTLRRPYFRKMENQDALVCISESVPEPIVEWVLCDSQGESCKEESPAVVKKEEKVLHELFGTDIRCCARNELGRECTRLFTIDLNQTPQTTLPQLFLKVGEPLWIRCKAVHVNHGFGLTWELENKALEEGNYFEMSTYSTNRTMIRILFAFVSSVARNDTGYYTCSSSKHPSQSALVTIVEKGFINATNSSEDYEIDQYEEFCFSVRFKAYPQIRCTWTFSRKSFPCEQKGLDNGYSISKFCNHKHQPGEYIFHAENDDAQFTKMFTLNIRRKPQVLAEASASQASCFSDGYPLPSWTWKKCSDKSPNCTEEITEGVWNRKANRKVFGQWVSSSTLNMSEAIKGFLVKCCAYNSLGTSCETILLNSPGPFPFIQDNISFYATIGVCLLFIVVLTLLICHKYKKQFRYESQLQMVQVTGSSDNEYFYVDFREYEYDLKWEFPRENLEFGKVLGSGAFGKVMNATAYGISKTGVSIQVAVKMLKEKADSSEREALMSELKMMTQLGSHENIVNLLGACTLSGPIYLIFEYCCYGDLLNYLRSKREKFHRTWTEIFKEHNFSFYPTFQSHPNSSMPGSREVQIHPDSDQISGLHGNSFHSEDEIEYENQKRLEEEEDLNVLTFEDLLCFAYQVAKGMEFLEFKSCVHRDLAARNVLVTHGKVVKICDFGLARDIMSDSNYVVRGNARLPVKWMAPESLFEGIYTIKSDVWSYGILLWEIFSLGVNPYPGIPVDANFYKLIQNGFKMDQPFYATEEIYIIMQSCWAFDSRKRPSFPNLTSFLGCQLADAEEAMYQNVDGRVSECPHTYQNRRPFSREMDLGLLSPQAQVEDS
Procedure: as §4

SMILES	IC50 [1] [nM]	IC50 [2] [nM]	IC50 [3] [nM]	Kinase activity @ 500 nM (%) JAK2 [4] [%]	inhibition at 0.5 µM [5] [%]
CC(C)n1cc(-c2nc(Nc3ccc(N4CCN(C5CCN(C)CC5)CC4)cc3)ncc2F)cn1 [CLJ-31, 5-fluoro-N-(4-(4-(1-methylpiperidine-4-yl)piperazine-1-yl)phenyl)-4-(1-isopropyl-1H-pyrazole-4-yl) pyrimidine-2-amine]	> 1000	> 1000	> 1000	25	18
CC(C)n1cc(-c2nc(Nc3ccc(N4CCN(C5CCN(C)CC5)CC4)c(F)c3)ncc2F)cn1 [CLJ-32, 5-fluoro-N-(3-fluoro-4-(4-(1-methylpiperidine-4-yl)piperazine-1-yl)phenyl)-4-(1-isopropyl-1H-pyrazole-4-yl) pyrimidine-2-amine]	100 to 1000	100 to 1000	10 to 100	90	95
CC(C)n1cc(-c2nc(Nc3ccc(N4CCC(N5CCCCC5)CC4)c(F)c3)ncc2F)cn1 [CLJ-33]	> 1000	> 1000	> 1000	34	23
Cc1nn(C(C)C)cc1-c1nc(Nc2ccc(N3CCN(C)CC3)c(F)c2)ncc1F [CLJ-34]	100 to 1000	100 to 1000	10 to 100	93	95
Cc1c(-c2nc(Nc3ccc(N4CCN(C)CC4)c(F)c3)ncc2F)cnn1C(C)C [CLJ-35]	100 to 1000	100 to 1000	10 to 100	92	91
CC(C)n1cc(-c2nc(Nc3ccc(N4CCC(N(C)C)CC4)c(F)c3)ncc2F)cn1 [CLJ-36, 5-fluoro-N-(3-fluoro-4-(4-dimethylaminopiperidine-1-yl)phenyl)-4-(1-isopropyl-1H-pyrazole-4-yl) pyrimidine-2-amine]	10 to 100	100 to 1000	10 to 100	97	99
COc1cc(Nc2ncc(F)c(-c3cnn(C(C)C)c3)n2)ccc1N1CCC(N(C)C)CC1 [CLJ-37, 5-fluoro-N-(3-methoxy-4-(4-dimethylaminopiperidine-1-yl)phenyl)-4-(1-isopropyl-1H-pyrazole-4-yl) pyrimidine-2-amine]	100 to 1000	100 to 1000	10 to 100	98	97
COc1cc(Nc2ncc(C)c(-c3cnn(C(C)C)c3)n2)ccc1N1CCC(N(C)C)CC1 [CLJ-39, 5-methyl-N-(3-methoxy-4-(4-dimethylaminopiperidine-1-yl)phenyl)-4-(1-isopropyl-1H-pyrazole-4-yl) pyrimidine-2-amine]	100 to 1000	100 to 1000	10 to 100	94	90
Cc1cnc(Nc2ccc(N3CCN(C(=O)CO)CC3)c(F)c2)nc1-c1cnn(C(C)C)c1 [CLJ-40, 5-methyl-N-(3-fluoro-4-(4-hydroxyacetylpiperazine-1-yl)phenyl)-4-(1-isopropyl-1H-pyrazole-4-yl) pyrimidine-2-amine]	10 to 100	100 to 1000	10 to 100	96	94
Cc1cnc(Nc2ccc(N3CCC(N(C)C(=O)CO)CC3)c(F)c2)nc1-c1cnn(C(C)C)c1 [CLJ-41, N-(1-(2-fluoro-4-((4-(1-isopropyl-1H-pyrazol-4-yl)-5-methylpyrimidine-2-yl)amino)phenyl)piperidine-4-yl)-2-hydroxy-N-methylacetamide]	100 to 1000	100 to 1000	10 to 100	102	97
Cc1cnc(Nc2ccc(N3CCC(CO)CC3)c(F)c2)nc1-c1cnn(C(C)C)c1 [CLJ-42, 5-methyl-N-(3-fluoro-4-(4-hydroxymethylpiperidine-1-yl)phenyl)-4-(1-isopropyl-1H-pyrazole-4-yl) pyrimidine-2-amine]	100 to 1000	100 to 1000	10 to 100	100	95
Cc1cnc(Nc2ccc(N3CCC(NCCO)CC3)c(F)c2)nc1-c1cnn(C(C)C)c1 [CLJ-43, 5-methyl-N-(3-fluoro-4-(4-hydroxyethylaminopiperidine-1-yl)phenyl)-4-(1-isopropyl-1H-pyrazole-4-yl) pyrimidine-2-amine]	100 to 1000	100 to 1000	10 to 100	95	94
Cc1cnc(Nc2ccc(N3CCC(N(C)CCCO)CC3)c(F)c2)nc1-c1cnn(C(C)C)c1 [CLJ-45, 5-methyl-N-(3-fluoro-4-(4-N-hydroxypropyl-4-N-methylaminopiperidine-1-yl)phenyl)-4-(1-isopropyl-1H-pyrazole-4-yl) pyrimidine-2-amine]	10 to 100	100 to 1000	1 to 10	91	98
Cc1cnc(Nc2ccc(N3CCC(N(C)CCCCO)CC3)c(F)c2)nc1-c1cnn(C(C)C)c1 [CLJ-46, 5-methyl-N-(3-fluoro-4-(4-N-hydroxybutyl-4-N-methylaminopiperidine-1-yl)phenyl)-4-(1-isopropyl-1H-pyrazole-4-yl) pyrimidine-2-amine]	10 to 100	100 to 1000	1 to 10	102	98
Cc1cnc(Nc2ccc(N3CCC(N(C)CCCCCO)CC3)c(F)c2)nc1-c1cnn(C(C)C)c1 [CLJ-47, 5-methyl-N-(3-fluoro-4-(4-N-hydroxypentyl-4-N-methylaminopiperidine-1-yl)phenyl)-4-(1-isopropyl-1H-pyrazole-4-yl) pyrimidine-2-amine]	10 to 100	100 to 1000	1 to 10	93	94
CCOCCN(C)C1CCN(c2ccc(Nc3ncc(C)c(-c4cnn(C(C)C)c4)n3)cc2F)CC1 [CLJ-48, 5-methyl-N-(3-fluoro-4-(4-N-ethoxyethyl-4-N-methylaminopiperidine-1-yl)phenyl)-4-(1-isopropyl-1H-pyrazole-4-yl) pyrimidine-2-amine]	100 to 1000	100 to 1000	100 to 1000	93	96
CCCN(C)C1CCN(c2ccc(Nc3ncc(C)c(-c4cnn(C(C)C)c4)n3)cc2F)CC1 [CLJ-49, 5-methyl-N-(3-fluoro-4-(4-N-propyl-4-N-methylaminopiperidine-1-yl)phenyl)-4-(1-isopropyl-1H-pyrazole-4-yl) pyrimidine-2-amine]	100 to 1000	100 to 1000	100 to 1000	95	91
